From patent publication US8247211B2, “Glycopeptide antibiotics” (American Cyanamid Company, priority 2001, dated 2012)
Converted amounts (≈) assume the structure as drawn.

How the values were obtained:
Assay in all cases: In vitro antibacterial evaluation: minimum inhibitory concentration (MIC), broth dilution method
Type in all cases: cell-based
Escherichia coli = test system: Escherichia coli
Procedure, shortened: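 Using Muller-Hinton II […] and an inoculum of 5×10^5 CFU/mL, antibiotic dilutions from 64 down to 0.06 μg/mL were tested following NCCLS M7-A2. The MIC is the lowest concentration inhibiting growth, including in methicillin-, penicillin- or vancomycin-resistant clinical isolates.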

Enterococcus sp. = test system: Enterococcus sp.
Procedure, shortened: (§1)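 Values are minimum inhibitory concentrations, meaning the smallest antibiotic concentration that stops growth of the organism. They come from broth dilution in Muller-Hinton II […] per NCCLS guidance (M7-A2), using 5×10^5 CFU/mL and concentrations from 64 to 0.06 μg/mL.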

Staphylococcus sp. = test system: Staphylococcus sp.
Procedure, shortened: as §1

Streptococcus sp. = test system: Streptococcus sp.
Procedure, shortened: as §1

[1] = 5×10^5 CFU/mL, 18 hours at 35° C.
[2] = broth dilution, 5×10^5 CFU/mL, 18 hours at 35° C.
[3] = broth dilution, 18 hours at 35° C.

## CC(C)=CCCC(C)CC1OCC2OC(OC3C(CO)OC(Oc4ccc(CC5NC(=O)C(C(C)c6ccccc6)NC(=O)CNC(=O)C(CO)NC(=O)C(C(O)C6CNC(=N)N6C6OC(CO)C(O)C(O)C6O)NC(=O)C(C(O)C6CNC(=N)N6)NC5=O)cc4)C(O)C3O)C(O)C(O)C2O1 (stereo not drawn) [Example 126, Cyclo[glycyl-β-methylphenylalanyl-O-[4-O-[4,6-O-[3,7-dimethyloct-6-en-1-ylidene)hexopyranosyl]hexopyranosyl]tyrosyl-3-(2-iminoimidazolidin-4-yl)seryl-3-(3-hexopyranosyl-2-iminoimidazolidin-4-yl)serylseryl]]
Escherichia coli; [1]
  MIC Escherichia coli (ATCC 25922): 64 mg/L (≈ 44.7 µM)
  MIC Escherichia coli (GC 4559): 64 mg/L (≈ 44.7 µM)
  MIC Escherichia coli (GC 4560): 8 mg/L (≈ 5.59 µM)
Enterococcus sp.; [2]
  MIC Enterococccus avium (GC 4558): 8 mg/L (≈ 5.59 µM)
  MIC Enterococccus faecalis (ATCC 29212): 8 mg/L (≈ 5.59 µM)
  MIC Enterococccus faecalis (GC 2691): 8 mg/L (≈ 5.59 µM)
  MIC Enterococccus faecalis (GC 3059): 8 mg/L (≈ 5.59 µM)
  MIC Enterococccus faecalis (GC 4552): 8 mg/L (≈ 5.59 µM)
  MIC Enterococccus faecalis (GC 4553): 8 mg/L (≈ 5.59 µM)
  MIC Enterococccus faecalis (GC 4554): 8 mg/L (≈ 5.59 µM)
  MIC Enterococccus faecalis (GC 6189): 8 mg/L (≈ 5.59 µM)
  MIC Enterococccus faecium (GC 2243): 8 mg/L (≈ 5.59 µM)
  MIC Enterococccus faecium (GC 4556): 8 mg/L (≈ 5.59 µM)
  MIC Enterococccus faecium (GC 4557): 8 mg/L (≈ 5.59 µM)
  MIC Enterococcus faecalis (GC 2242): 8 mg/L (≈ 5.59 µM)
Staphylococcus sp.; [2]
  MIC Coagulase Negative Staphylococcus (GC 4547): 8 mg/L (≈ 5.59 µM)
  MIC Coagulase Negative Staphylococcus (GC 4548): 8 mg/L (≈ 5.59 µM)
  MIC Coagulase Negative Staphylococcus (GC 4549): 8 mg/L (≈ 5.59 µM)
  MIC Coagulase Negative Staphylococcus (GC 4551): 8 mg/L (≈ 5.59 µM)
  MIC Coagulase Negative Staphylococcus (GC 6257): 8 mg/L (≈ 5.59 µM)
  MIC Staphylococcus aureus-SMITH (GC 4543): 8 mg/L (≈ 5.59 µM)
  MIC Staphylococcus haemolyticus (GC 4546): 8 mg/L (≈ 5.59 µM)
Staphylococcus sp.; strain ATCC 29213
  MIC Staphylococcus aureus (ATCC 29213): 8 mg/L (≈ 5.59 µM)
Staphylococcus sp.; strain ATCC 29213, broth dilution, 18 hours at 35° C.
  MIC Staphylococcus aureus (ATCC 29213): 8 mg/L (≈ 5.59 µM)
Staphylococcus sp.; strain GC 1131
  MIC Staphylococcus aureus (GC 1131): 8 mg/L (≈ 5.59 µM)
Staphylococcus sp.; strain GC 1131, broth dilution, 18 hours at 35° C.
  MIC Staphylococcus aureus (GC 1131): 8 mg/L (≈ 5.59 µM)
Staphylococcus sp.; strain GC 3051
  MIC Staphylococcus aureus (GC 3051): 8 mg/L (≈ 5.59 µM)
Staphylococcus sp.; strain GC 3051, broth dilution, 18 hours at 35° C.
  MIC Staphylococcus aureus (GC 3051): 8 mg/L (≈ 5.59 µM)
Staphylococcus sp.; strain GC 3053
  MIC Staphylococcus aureus (GC 3053): 8 mg/L (≈ 5.59 µM)
Staphylococcus sp.; strain GC 3053, broth dilution, 18 hours at 35° C.
  MIC Staphylococcus aureus (GC 3053): 8 mg/L (≈ 5.59 µM)
Staphylococcus sp.; strain GC 4541
  MIC Staphylococcus aureus (GC 4541): 8 mg/L (≈ 5.59 µM)
Staphylococcus sp.; strain GC 4541, broth dilution, 18 hours at 35° C.
  MIC Staphylococcus aureus (GC 4541): 8 mg/L (≈ 5.59 µM)
Staphylococcus sp.; strain GC 4542
  MIC Staphylococcus aureus (GC 4542): 8 mg/L (≈ 5.59 µM)
Staphylococcus sp.; strain GC 4542, broth dilution, 18 hours at 35° C.
  MIC Staphylococcus aureus (GC 4542): 8 mg/L (≈ 5.59 µM)
Staphylococcus sp.; strain GC 4543, broth dilution, 18 hours at 35° C.
  MIC Staphylococcus aureus-SMITH (GC 4543): 8 mg/L (≈ 5.59 µM)
Staphylococcus sp.; strain GC 4544
  MIC Staphylococcus aureus (GC 4544): 8 mg/L (≈ 5.59 µM)
Staphylococcus sp.; strain GC 4544, broth dilution, 18 hours at 35° C.
  MIC Staphylococcus aureus (GC 4544): 8 mg/L (≈ 5.59 µM)
Staphylococcus sp.; strain GC 4545
  MIC Staphylococcus aureus (GC 4545): 8 mg/L (≈ 5.59 µM)
Staphylococcus sp.; strain GC 4545, broth dilution, 18 hours at 35° C.
  MIC Staphylococcus aureus (GC 4545): 8 mg/L (≈ 5.59 µM)
Staphylococcus sp.; strain GC 4546, broth dilution, 18 hours at 35° C.
  MIC Staphylococcus haemolyticus (GC 4546): 8 mg/L (≈ 5.59 µM)
Staphylococcus sp.; strain GC 4547, broth dilution, 18 hours at 35° C.
  MIC Coagulase Negative Staphylococcus (GC 4547): 8 mg/L (≈ 5.59 µM)
Staphylococcus sp.; strain GC 4548, broth dilution, 18 hours at 35° C.
  MIC Coagulase Negative Staphylococcus (GC 4548): 8 mg/L (≈ 5.59 µM)
Staphylococcus sp.; strain GC 4549, broth dilution, 18 hours at 35° C.
  MIC Coagulase Negative Staphylococcus (GC 4549): 8 mg/L (≈ 5.59 µM)
Staphylococcus sp.; strain GC 4551, broth dilution, 18 hours at 35° C.
  MIC Coagulase Negative Staphylococcus (GC 4551): 8 mg/L (≈ 5.59 µM)
Staphylococcus sp.; strain GC 6257, broth dilution, 18 hours at 35° C.
  MIC Coagulase Negative Staphylococcus (GC 6257): 8 mg/L (≈ 5.59 µM)
Streptococcus sp.; [2]
  MIC Streptococcus agalactiae (GC 4564): 1 mg/L (≈ 0.699 µM)
  MIC Streptococcus pneumoniae (GC 1894): <0.06 mg/L
  MIC Streptococcus pneumoniae (GC 4565): <0.06 mg/L
  MIC Streptococcus pneumonine (ATCC 6301): <0.06 mg/L
  MIC Streptococcus pyogenes (GC 4563): 0.12 mg/L (≈ 0.0838 µM)

## CC(C)=CCCC(C)=CCN=C1NCC(C(O)C2NC(=O)C(C(O)C3CNC(=N)N3)NC(=O)C(Cc3ccc(OC4OC(CO)C(OC5OC6COC7(OC6C(O)C5O)C5CC6CC(C5)CC7C6)C(O)C4O)cc3)NC(=O)C(C(C)c3ccccc3)NC(=O)CNC(=O)C(CO)NC2=O)N1C1OC(CO)C(O)C(O)C1O (stereo not drawn) [Example 82, Cyclo[glycyl-β-methylphenylalanyl-O-[4-O-[4,6-O-(2-adamantylidene)hexopyranosyl]hexopyranosyl]tyrosyl-3-(2-iminoimidazolidin-4-yl)seryl-3-[1-[(3,7-dimethylocta-2,6-dien-1-yl)-imino]-3-hexopyranosylimidazolidin-4-yl]serylseryl]]
Escherichia coli; strain GC 4560
  MIC Escherichia coli (GC 4560): 4 mg/L (≈ 2.56 µM)
Enterococcus sp.; Enterococcus faecalis (GC 2242), broth dilution, 18 hours at 35° C.
  MIC Enterococcus faecalis (GC 2242): 16 mg/L (≈ 10.2 µM)
Enterococcus sp.; Enterococcus faecalis (GC 2691), broth dilution, 18 hours at 35° C.
  MIC Enterococcus faecalis (GC 2691): 16 mg/L (≈ 10.2 µM)
Enterococcus sp.; Enterococcus faecalis (GC 3059), broth dilution, 18 hours at 35° C.
  MIC Enterococcus faecalis (GC 3059): 16 mg/L (≈ 10.2 µM)
Enterococcus sp.; strain ATCC 29212
  MIC Enterococcus faecalis (ATCC 29212): 16 mg/L (≈ 10.2 µM)
Enterococcus sp.; strain GC 2242
  MIC Enterococcus faecalis (GC 2242): 16 mg/L (≈ 10.2 µM)
Enterococcus sp.; strain GC 2243
  MIC Enterococcus faecium (GC 2243): 8 mg/L (≈ 5.12 µM)
Enterococcus sp.; strain GC 2691
  MIC Enterococcus faecalis (GC 2691): 16 mg/L (≈ 10.2 µM)
Enterococcus sp.; strain GC 3059
  MIC Enterococcus faecalis (GC 3059): 16 mg/L (≈ 10.2 µM)
Enterococcus sp.; strain GC 4552
  MIC Enterococcus faecalis (GC 4552): 16 mg/L (≈ 10.2 µM)
Enterococcus sp.; strain GC 4553
  MIC Enterococcus faecalis (GC 4553): 8 mg/L (≈ 5.12 µM)
Enterococcus sp.; strain GC 4554
  MIC Enterococcus faecalis (GC 4554): 32 mg/L (≈ 20.5 µM)
Enterococcus sp.; strain GC 4556
  MIC Enterococcus faecium (GC 4556): 16 mg/L (≈ 10.2 µM)
Enterococcus sp.; strain GC 4557
  MIC Enterococcus faecium (GC 4557): 2 mg/L (≈ 1.28 µM)
Enterococcus sp.; strain GC 4558
  MIC Enterococcus avium (GC 4558): 4 mg/L (≈ 2.56 µM)
Enterococcus sp.; strain GC 6189
  MIC Enterococcus faecalis (GC 6189): 16 mg/L (≈ 10.2 µM)
Staphylococcus sp.; [3]
  MIC Coagulase Negative Staphylococcus (GC 4547): 4 mg/L (≈ 2.56 µM)
  MIC Coagulase Negative Staphylococcus (GC 4548): 4 mg/L (≈ 2.56 µM)
  MIC Coagulase Negative Staphylococcus (GC 4549): 4 mg/L (≈ 2.56 µM)
  MIC Coagulase Negative Staphylococcus (GC 4551): 8 mg/L (≈ 5.12 µM)
  MIC Staphylococcus aureus (ATCC 29213): 8 mg/L (≈ 5.12 µM)
  MIC Staphylococcus aureus (GC 1131): 16 mg/L (≈ 10.2 µM)
  MIC Staphylococcus aureus (GC 3051): 8 mg/L (≈ 5.12 µM)
  MIC Staphylococcus aureus (GC 3053): 16 mg/L (≈ 10.2 µM)
  MIC Staphylococcus aureus (GC 4541): 8 mg/L (≈ 5.12 µM)
  MIC Staphylococcus aureus (GC 4542): 16 mg/L (≈ 10.2 µM)
  MIC Staphylococcus aureus (GC 4544): 16 mg/L (≈ 10.2 µM)
  MIC Staphylococcus aureus (GC 4545): 8 mg/L (≈ 5.12 µM)
  MIC Staphylococcus aureus SMITH (GC 4543): 8 mg/L (≈ 5.12 µM)
  MIC Staphylococcus haemolyticus (GC 4546): 4 mg/L (≈ 2.56 µM)
Staphylococcus sp.; strain SMITH GC 4543, broth dilution, 18 hours at 35° C.
  MIC Staphylococcus aureus-SMITH (GC 4543): 8 mg/L (≈ 5.12 µM)
Streptococcus sp.; Streptococcus agalactiae (GC 4564), broth dilution, 18 hours at 35° C.
  MIC Streptococcus agalactiae (GC 4564): 0.5 mg/L (≈ 0.32 µM)
Streptococcus sp.; Streptococcus pneumoniae (ATCC 6301), broth dilution, 18 hours at 35° C.
  MIC Streptococcus pneumoniae (ATCC 6301): 2 mg/L (≈ 1.28 µM)
Streptococcus sp.; Streptococcus pneumoniae (GC 1894), broth dilution, 18 hours at 35° C.
  MIC Streptococcus pneumoniae (GC 1894): 0.25 mg/L (≈ 0.16 µM)
Streptococcus sp.; Streptococcus pneumoniae (GC 4565), broth dilution, 18 hours at 35° C.
  MIC Streptococcus pneumoniae (GC 4565): 2 mg/L (≈ 1.28 µM)
Streptococcus sp.; Streptococcus pyogenes (GC 4563), broth dilution, 18 hours at 35° C.
  MIC Streptococcus pyogenes (GC 4563): 1 mg/L (≈ 0.64 µM)
Streptococcus sp.; strain ATCC 6301
  MIC Streptococcus pneumoniae (ATCC 6301): 2 mg/L (≈ 1.28 µM)
Streptococcus sp.; strain GC 1894
  MIC Streptococcus pneumoniae (GC 1894): 0.25 mg/L (≈ 0.16 µM)
Streptococcus sp.; strain GC 4563
  MIC Streptococcus pyogenes (GC 4563): 1 mg/L (≈ 0.64 µM)
Streptococcus sp.; strain GC 4564
  MIC Streptococcus agalactiae (GC 4564): 0.5 mg/L (≈ 0.32 µM)
Streptococcus sp.; strain GC 4565
  MIC Streptococcus pneumoniae (GC 4565): 2 mg/L (≈ 1.28 µM)
